According to patent US20260327191A1, “GSK3a INHIBITORS AND METHODS OF USE THEREOF” (Blueprint Medicines Corporation, priority 2023, published 2026):

How the values were obtained:
GSK3A = biological target: T1, GSK3A (Homo sapiens, UniProt P49840); assay: NanoBRET cellular target engagement assay, Nanoluc-GSK3A in HEK293 cells; format: cell-based; settings: NanoBRET GSK3α IC50, HEK293 cells, tracer K-8, 2 hours, 37° C
T1 construct: expressed in transfected cells

GSK3B [1] = biological target: T2, GSK3B (Homo sapiens, UniProt P49841); assay: NanoBRET cellular target engagement assay, Nanoluc-GSK3B in HEK293 cells; format: cell-based; design: expressed in transfected cells; settings: NanoBRET GSK3β IC50, HEK293 cells, tracer K-8, 2 hours, 37° C
T2 sequence (P49841 whole entry, the tested form may be a part): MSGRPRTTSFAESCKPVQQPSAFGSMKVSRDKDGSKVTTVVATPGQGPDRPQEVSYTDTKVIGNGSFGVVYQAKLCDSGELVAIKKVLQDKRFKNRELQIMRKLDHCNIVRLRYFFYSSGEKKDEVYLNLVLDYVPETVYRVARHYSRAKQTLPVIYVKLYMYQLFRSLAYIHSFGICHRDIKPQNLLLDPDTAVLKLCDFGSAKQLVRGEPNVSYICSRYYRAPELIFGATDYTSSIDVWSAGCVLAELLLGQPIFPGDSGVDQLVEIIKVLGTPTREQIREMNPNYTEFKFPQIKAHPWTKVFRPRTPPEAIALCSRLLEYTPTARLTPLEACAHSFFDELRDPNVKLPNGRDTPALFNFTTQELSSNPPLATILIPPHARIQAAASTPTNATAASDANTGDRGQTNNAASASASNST

GSK3B [2] = biological target: T2, GSK3B; assay: In vitro enzymatic activity assay, GSK3β; format: biochemical; design: Full length human GSK3α or GSK3B expressed as N-terminal GST fusion proteins; GST (N); purchased Carna Biosciences (Japan); host or cells: baculovirus host; settings: 1.0 mM ATP, 1.0 μM peptide substrate, 120 min, 25° C, read-out: Enzyme GSK3β (IC50)
human GSK3α = biological target: T3, human GSK3α (Homo sapiens, UniProt P49840); assay: In vitro enzymatic activity assay, GSK3α; format: biochemical; settings: 1.0 mM ATP, 1.0 μM peptide substrate, 120 min, 25° C, read-out: Enzyme GSK3α (IC50)
T3 construct: Full length human GSK3α or GSK3B expressed as N-terminal GST fusion proteins; GST (N); purchased Carna Biosciences (Japan); host or cells: baculovirus host
T3 sequence (P49840 whole entry, the tested form may be a part): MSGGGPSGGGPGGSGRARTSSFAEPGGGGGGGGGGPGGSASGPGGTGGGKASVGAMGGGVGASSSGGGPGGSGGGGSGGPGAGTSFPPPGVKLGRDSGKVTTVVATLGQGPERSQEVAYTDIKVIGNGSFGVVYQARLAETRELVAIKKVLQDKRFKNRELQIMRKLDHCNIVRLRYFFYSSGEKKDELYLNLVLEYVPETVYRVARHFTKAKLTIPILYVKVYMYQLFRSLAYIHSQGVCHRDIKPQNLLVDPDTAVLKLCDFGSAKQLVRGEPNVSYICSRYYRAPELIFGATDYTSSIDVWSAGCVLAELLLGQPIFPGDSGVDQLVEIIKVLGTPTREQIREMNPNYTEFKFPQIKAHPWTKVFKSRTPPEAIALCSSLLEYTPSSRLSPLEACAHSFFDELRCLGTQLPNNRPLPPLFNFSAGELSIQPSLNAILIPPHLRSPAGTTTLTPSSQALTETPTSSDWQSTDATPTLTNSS

T1 sequence (P49840 whole entry): as the sequence (P49840 whole entry, the tested form may be a part) above

| IC50 (GSK3A) | IC50 (GSK3B [1]) | IC50 (GSK3B [2]) | IC50 (human GSK3α) | Compound |
| --- | --- | --- | --- | --- |
| 2.1 nM | 167 nM | 175 nM | 3.9 nM | Cc1cc([C@@H](C)F)cc(C)c1-n1cnc(N)c(C(=O)Nc2cncc([C@H]3CCCCN3)c2)c1=O (single isomer, unassigned) [Example 184, 4-amino-1-(4-((R)-1-fluoroethyl)-2,6-dimethylphenyl)-6-oxo-N-(5-((R)-piperidin-2-yl)pyridin-3-yl)-1,6-dihydropyrimidine-5-carboxamide or 4-amino-1-(4-((S)-1-fluoroethyl)-2,6-dimethylphenyl)-6-oxo-N-(5-((R)-piperidin-2-yl)pyridin-3-yl)-1,6-dihydropyrimidine-5-carboxamide] |
| 1.6 nM | 128 nM | 148 nM | 3.5 nM | Cc1cc([C@@H](C)F)cc(C)c1-n1cnc(N)c(C(=O)Nc2cncc([C@H]3CCCCN3)c2)c1=O (single isomer, unassigned) [Example 185, 4-amino-1-(4-((R)-1-fluoroethyl)-2,6-dimethylphenyl)-6-oxo-N-(5-((R)-piperidin-2-yl)pyridin-3-yl)-1,6-dihydropyrimidine-5-carboxamide or 4-amino-1-(4-((S)-1-fluoroethyl)-2,6-dimethylphenyl)-6-oxo-N-(5-((R)-piperidin-2-yl)pyridin-3-yl)-1,6-dihydropyrimidine-5-carboxamide] |
| 5.6 nM | 421 nM | 357 nM | 8.4 nM | COc1cc(Cl)c(-n2cnc(N)c(C(=O)Nc3cncc([C@]4(N)CCCOC4)c3)c2=O)c(Cl)c1 (single isomer, unassigned) [Example 187, (R)-4-amino-N-(5-(3-aminotetrahydro-2H-pyran-3-yl)pyridin-3-yl)-1-(2,6-dichloro-4-methoxyphenyl)-6-oxo-1,6-dihydropyrimidine-5-carboxamide or (S)-4-amino-N-(5-(3-aminotetrahydro-2H-pyran-3-yl)pyridin-3-yl)-1-(2,6-dichloro-4-methoxyphenyl)-6-oxo-1,6-dihydropyrimidine-5-carboxamide] |
| 3.9 nM | 345 nM | 460 nM | 10.4 nM | COc1cc(Cl)c(-n2cnc(N)c(C(=O)Nc3cncc([C@]4(N)CCCOC4)c3)c2=O)c(Cl)c1 (single isomer, unassigned) [Example 188, R)-4-amino-N-(5-(3-aminotetrahydro-2H-pyran-3-yl)pyridin-3-yl)-1-(2,6-dichloro-4-methoxyphenyl)-6-oxo-1,6-dihydropyrimidine-5-carboxamide or (S)-4-amino-N-(5-(3-aminotetrahydro-2H-pyran-3-yl)pyridin-3-yl)-1-(2,6-dichloro-4-methoxyphenyl)-6-oxo-1,6-dihydropyrimidine-5-carboxamide] |
| 69.4 nM | 4580 nM | 2160 nM | 133 nM | Nc1ncn(-c2c(Cl)cccc2Cl)c(=O)c1C(=O)Nc1cccc([C@@H]2CNC(=O)CN2)c1 (single isomer, unassigned) [Example 189, (R)-4-amino-1-(2,6-dichlorophenyl)-6-oxo-N-(3-(5-oxopiperazin-2-yl)phenyl)-1,6-dihydropyrimidine-5-carboxamide or (S)-4-amino-1-(2,6-dichlorophenyl)-6-oxo-N-(3-(5-oxopiperazin-2-yl)phenyl)-1,6-dihydropyrimidine-5-carboxamide] |
| 26.7 nM | 3300 nM | 971 nM | 37.6 nM | Nc1ncn(-c2c(Cl)cccc2Cl)c(=O)c1C(=O)Nc1cccc([C@@H]2CNC(=O)CN2)c1 (single isomer, unassigned) [Example 190, (R)-4-amino-1-(2,6-dichlorophenyl)-6-oxo-N-(3-(5-oxopiperazin-2-yl)phenyl)-1,6-dihydropyrimidine-5-carboxamide or (S)-4-amino-1-(2,6-dichlorophenyl)-6-oxo-N-(3-(5-oxopiperazin-2-yl)phenyl)-1,6-dihydropyrimidine-5-carboxamide] |
| 4.7 nM | 304 nM | 230 nM | 5.7 nM | Nc1ncn(-c2c(Cl)cccc2Cl)c(=O)c1C(=O)Nc1cccc([C@H]2CC[C@H](CO)N2)c1 (single isomer, unassigned) [Example 191, 4-amino-1-(2,6-dichlorophenyl)-N-(3-((2R,5R)-5-(hydroxymethyl)pyrrolidin-2-yl)phenyl)-6-oxo-1,6-dihydropyrimidine-5-carboxamide or 4-amino-1-(2,6-dichlorophenyl)-N-(3-((2S,5S)-5-(hydroxymethyl)pyrrolidin-2-yl)phenyl)-6-oxo-1,6-dihydropyrimidine-5-carboxamide] |
| 5.4 nM | 462 nM | 632 nM | 11 nM | CN[C@@H](C)c1cncc(NC(=O)c2c(N)ncn(-c3c(Cl)cc(OC4CC4)cc3Cl)c2=O)c1 (single isomer, unassigned) [Example 195, (S)-4-amino-1-(2,6-dichloro-4-cyclopropoxyphenyl)-N-(5-(1-(methylamino)ethyl)pyridin-3-yl)-6-oxo-1,6-dihydropyrimidine-5-carboxamide or (R)-4-amino-1-(2,6-dichloro-4-cyclopropoxyphenyl)-N-(5-(1-(methylamino)ethyl)pyridin-3-yl)-6-oxo-1,6-dihydropyrimidine-5-carboxamide] |
| 7.2 nM | 403 nM | 850 nM | 15 nM | COCC[C@@H](N)c1cncc(NC(=O)c2c(N)ncn(-c3c(Cl)cccc3Cl)c2=O)c1 (single isomer, unassigned) [Example 197, (R)-4-amino-N-(5-(1-amino-3-methoxypropyl)pyridin-3-yl)-1-(2,6-dichlorophenyl)-6-oxo-1,6-dihydropyrimidine-5-carboxamide or (S)-4-amino-N-(5-(1-amino-3-methoxypropyl)pyridin-3-yl)-1-(2,6-dichlorophenyl)-6-oxo-1,6-dihydropyrimidine-5-carboxamide] |
| 8.8 nM | 782 nM | 706 nM | 13.5 nM | COc1cc(Cl)c(-n2cnc(N)c(C(=O)Nc3cncc([C@@H](N)C(F)F)c3)c2=O)c(Cl)c1 (single isomer, unassigned) [Example 204, (R)-4-amino-N-(5-(1-amino-2,2-difluoroethyl)pyridin-3-yl)-1-(2,6-dichloro-4-methoxyphenyl)-6-oxo-1,6-dihydropyrimidine-5-carboxamide or (S)-4-amino-N-(5-(1-amino-2,2-difluoroethyl)pyridin-3-yl)-1-(2,6-dichloro-4-methoxyphenyl)-6-oxo-1,6-dihydropyrimidine-5-carboxamide] |
| 3.1 nM | 139 nM | 260 nM | 9.4 nM | COc1cc(C)c(-n2cnc(N)c(C(=O)N[C@@H]3CCC[C@H](CN)C3)c2=O)c(Cl)c1 (single isomer, unassigned) [Example 206, 4-amino-N-((1R,3S)-3-(aminomethyl)cyclohexyl)-1-((S)-2-chloro-4-methoxy-6-methylphenyl)-6-oxo-1,6-dihydropyrimidine-5-carboxamide or 4-amino-N-((1S,3R)-3-(aminomethyl)cyclohexyl)-1-((S)-2-chloro-4-methoxy-6-methylphenyl)-6-oxo-1,6-dihydropyrimidine-5-carboxamide] |
| 8.6 nM | 797 nM | 888 nM | 15.9 nM | Nc1ncn(-c2c(Cl)cccc2Cl)c(=O)c1C(=O)Nc1cccc([C@@H]2COCCCN2)c1 (single isomer, unassigned) [Example 211, (R)—N-(3-(1,4-oxazepan-3-yl)phenyl)-4-amino-1-(2,6-dichlorophenyl)-6-oxo-1,6-dihydropyrimidine-5-carboxamide or (S)—N-(3-(1,4-oxazepan-3-yl)phenyl)-4-amino-1-(2,6-dichlorophenyl)-6-oxo-1,6-dihydropyrimidine-5-carboxamide] |
| 7.6 nM | 520 nM | 272 nM | 4.7 nM | COc1cc(Cl)c(-n2cnc(N)c(C(=O)Nc3cncc(C4COCCN4)c3)c2=O)c(Cl)c1 (single isomer, unassigned) [Example 212, (S)-4-amino-1-(2,6-dichloro-4-methoxyphenyl)-N-(5-(morpholin-3-yl)pyridin-3-yl)-6-oxo-1,6-dihydropyrimidine-5-carboxamide or (R)-4-amino-1-(2,6-dichloro-4-methoxyphenyl)-N-(5-(morpholin-3-yl)pyridin-3-yl)-6-oxo-1,6-dihydropyrimidine-5-carboxamide] |
| 7.8 nM | 992 nM | 1760 nM | 33.2 nM | COc1cc(Cl)c(-n2cnc(N)c(C(=O)Nc3cncc([C@@H]4CCN4)c3)c2=O)c(Cl)c1 (single isomer, unassigned) [Example 213, (S)-4-amino-N-(5-(azetidin-2-yl)pyridin-3-yl)-1-(2,6-dichloro-4-methoxyphenyl)-6-oxo-1,6-dihydropyrimidine-5-carboxamide or (R)-4-amino-N-(5-(azetidin-2-yl)pyridin-3-yl)-1-(2,6-dichloro-4-methoxyphenyl)-6-oxo-1,6-dihydropyrimidine-5-carboxamide] |
